According to PubChem BioAssay AID1996:
In brackets after ≈: the same amount, converted by molar mass.

Conditions: buffer; pH 7.4; 200.0 µM

SMILES	solubility kinetic [µg/mL]
Cc1ccc2[nH]c(C)c(CCNCc3ccco3)c2c1.Cl	42.9
CCOc1ccc(S(=O)(=O)n2cnc3ccccc32)cc1	42.4 (≈ 140 µM)
c1ccc(SCc2cn3cccnc3n2)nc1	> 36.3
O=C(Nc1ccccc1Cl)OC1CN2CCC1CC2 (stereo not drawn)	38.1 (≈ 136 µM)
CC(=O)c1c(C)[n+]([O-])c2ccc3c(non3O)c12	25.5 (≈ 103 µM)
COc1ccc(CNC(=O)CCSCc2cccc(F)c2)cc1	> 50
O=C(COC(=O)/C=C/c1cccc(F)c1)Nc1ncccn1	27.7 (≈ 91.9 µM)
CCc1ccc2oc(C(=O)Nc3nonc3C)c(C)c2c1	< 0.2
Fc1ccc2[nH]c3c(c2c1)CN(C(=S)NCc1ccccc1)CC3	5 (≈ 14.7 µM)
Fc1cccc(NC(=S)Nc2cccc3ccccc23)c1	19.6 (≈ 66.1 µM)
NC(=O)c1ccc(=O)n(Cc2ccc(F)c(F)c2)c1	> 39.6
CC(C)NCc1nnc(-c2ccccc2Cl)o1	> 37.8
CC(NC(=O)COc1ccccc1)C(=O)NCc1ccccc1Cl (stereo not drawn)	> 52
CCOc1ccc(NS(=O)(=O)c2cc(C(=O)NCCN3CCOCC3)ccc2C)cc1	66.4 (≈ 148 µM)
Cc1ccc(O)c(C(=O)c2cnc(/N=C(\N)N(C)C)nc2)c1	41.1 (≈ 137 µM)
O=C1CN=C(c2ccc(Cl)cc2)c2oc3ccccc3c2N1	< 0.3
C[C@H](C(=O)NCc1ccccc1)C(=O)c1ccccc1	> 40.1
Cc1cccc(OCC(=O)NCCCNC(=O)c2ccc(C)nc2)c1	> 51.2
COc1ccc(-n2c(C)ccc2-c2ccccc2)cn1	5.9 (≈ 22.3 µM)
CCCCNC(=O)C(=O)Nc1cc2c3c(c1)CCC(=O)N3CCC2	1.5 (≈ 4.55 µM)
COc1ccc(Cn2cc(F)c(=O)n(C)c2=O)cc1[N+](=O)[O-]	42.8 (≈ 138 µM)
COc1ccc(C=O)cc1CSc1ncccc1C(=O)O	> 45.5

SMILES	solubility kinetic [µg/mL]
CCN(CC)S(=O)(=O)c1ccc(NCc2ccccn2)nc1	> 48.1
C(=C\c1ccccc1)/CSc1nc2ncccc2[nH]1	8.9 (≈ 33.3 µM)
CC(NC(=O)CCSCc1ccccc1F)c1ccccc1 (stereo not drawn)	44.5 (≈ 140 µM)
O=c1[nH]cc(S(=O)(=O)N2CCOCC2)c(=O)[nH]1	> 39.2
Cc1ccc(C(=O)Nc2ccc(C(=O)N3CCCCC3C)cc2)cc1 (stereo not drawn)	5.2 (≈ 15.5 µM)
CCOC(=O)C1CCN(S(=O)(=O)c2ccc(Cl)s2)CC1	12.3 (≈ 36.4 µM)
Fc1ccc(OCCOCCN2CCNCC2)cc1.O=C(O)C(=O)O	51
O=S(=O)(c1ccccc1)N1CCCC1c1cccs1 (stereo not drawn)	> 44
O=C1COCC(=O)N1CCc1c[nH]c2ccccc12	> 38.7
Cc1cc(C(=O)OCC(=O)NCc2ccccc2)c(C)o1	> 43.1
COc1ccc(OC)c(NC(=O)c2cc3c(cc2Cl)N2CCCCCC2=NS3(=O)=O)c1	3.7 (≈ 7.98 µM)
Cc1ccc(C(=O)O/N=C(\N)c2ccccn2)c(Cl)c1	42.4 (≈ 146 µM)
CCOC(=O)N1CCN(CC(=O)c2ccc(O)cc2O)CC1	> 46.3
CC(NC(=O)CCC(=O)c1ccc(F)cc1)C1CC2CCC1C2 (stereo not drawn)	12.5 (≈ 39.4 µM)
COC(OC)c1ccc(C#N)c(SCc2ccccc2)n1	9.4 (≈ 31.3 µM)
O=C(COC(=O)c1cccc(Cl)c1)NC(=O)NCc1ccccc1	3.6 (≈ 10.4 µM)
COC(=O)Cn1cnc2scc(-c3ccc(C)cc3)c2c1=O	> 47.2
Cn1c(N)c(C(=O)CN2CCc3ccccc3C2)c(=O)n(C)c1=O	> 49.3
COc1ccc(NC(=O)CN(C)CC(=O)NC2CCCCC2C)cc1 (stereo not drawn)	50.2 (≈ 144 µM)
O=C(CCc1ccccc1)Nc1ccc2c(c1)C(=O)OC2	15.4 (≈ 54.7 µM)
O=C(NC(Cc1ccccc1)C(=O)O)c1cccnc1Cl (stereo not drawn)	35 (≈ 115 µM)
O=C(O)CCC(=O)Nc1ccc(S(=O)(=O)Nc2nccs2)cc1	51.4 (≈ 145 µM)

SMILES	solubility kinetic [µg/mL]
COc1ccc(Nc2ncnc3sccc23)cc1OC	36.9 (≈ 128 µM)
COc1ccc(C2=NC(C)(C)Cc3cc(OC)c(OC)cc32)cc1	> 48.8
CC(Sc1cccc[n+]1[O-])c1ccccc1 (stereo not drawn)	> 34.7
Cc1[nH]c(=O)nc(SCc2cccc(Cl)c2)c1C#N	12.2 (≈ 41.8 µM)
O=C(Nc1cccc(S(=O)(=O)N2CCCC2)c1)c1cccnc1	37.7 (≈ 114 µM)
COc1ccc(CN(C)CC(=O)Nc2c(C)cccc2C)c(OC)c1	> 51.4
Cc1noc2ncnc(N3CCCC3)c12	> 30.6
CN1CCN(/N=C/c2c[nH]c3ccccc23)CC1	> 36.3
N#Cc1ccc(NC(=O)COC(=O)c2cccnc2Cl)cc1	> 47.4
O=C(NCc1cccs1)C1CC1	26.5 (≈ 146 µM)
Cc1cc(O)c(Sc2ccc(Cl)cc2)c(=O)[nH]1	> 40.2
COCc1nc2ccccc2n1Cc1c(F)cccc1Cl	> 45.7
COc1ccccc1S(=O)(=O)c1c(C)cc(C)[nH]c1=O	> 44
NC(=O)Cn1nc(C(F)(F)F)c2c1CCCC2	> 37.1
CNC(=O)N1CCC(C(=O)c2c(C)c(C)c(C)c(C)c2C)CC1	36.5 (≈ 115 µM)
Cl.O=C(NC12CC3CC(CC(C3)C1)C2)OC1CN2CCC1CC2 (stereo not drawn)	47.7
Cc1cccc(CSc2nc3c(c(=O)n2C)SCC3)c1	11.6 (≈ 38.1 µM)
CC(=O)Nc1ccc(S(=O)(=O)NC2Cc3ccccc3C2)cc1	6.8 (≈ 20.6 µM)
CC(NC(=O)Nc1cccc([N+](=O)[O-])c1)c1ccc2c(c1)OCO2 (stereo not drawn)	2.2 (≈ 6.68 µM)
CC(C)NCc1nnc(-c2ccc(Cl)cc2)o1	> 37.8
CC(C)CCSc1nc2ccccc2[nH]1	10.7 (≈ 48.6 µM)
COc1ccc(CCNC(=O)c2cnc3ccccc3n2)cc1	40.2 (≈ 131 µM)

SMILES	solubility kinetic [µg/mL]
O=C(O)Cc1ccc(NS(=O)(=O)c2ccc3ccccc3c2)cc1	> 51.2
CN1CCN(C(=O)CC2(CC(=O)O)CCCC2)CC1.Cl	> 45.7
Cc1ccc(NC(=O)CCN2C(=O)NC(C)(C)C2=O)cc1F	> 46.1
CCN(CC)S(=O)(=O)c1ccc(OC)c(NC(=O)CSCc2c(C)noc2C)c1	> 66.2
N/C(=N\OC(=O)c1ccccc1F)c1ccc([N+](=O)[O-])cc1	2.3 (≈ 7.58 µM)
CSc1nc(N(C)C)nc(N(C)C#N)n1	> 33.6
Cc1ccc(C2N(C)C(=O)c3ccccc3N2C)cc1 (stereo not drawn)	31.5 (≈ 118 µM)
O=C(/C=C/Nc1ccc(F)cc1F)c1ccc(Br)cc1	< 0.7
Cc1ccc(C)c(OCCC(=O)Nc2cc(S(=O)(=O)N3CCCCC3)ccc2C)c1	2.4 (≈ 5.57 µM)
CSC1=NCCN1C(=O)Cc1cccc2ccccc12	20.4 (≈ 71.7 µM)
Nc1nc(Oc2ccc(F)cc2)c(Br)c(=O)[nH]1	> 45
COc1ccc(-c2nc(C)ncc2-c2ccc(Cl)cc2)c(O)c1	< 0.3
COc1nc(-c2ccccc2)c2cc(C)ccc2n1	15.4 (≈ 61.5 µM)
OCCN1CCN(C(=S)Nc2ccc(SC(F)F)cc2)CC1	> 52.1
CCOc1ccc(NC2=CC(=O)CCC2)cc1	29.5 (≈ 128 µM)
N#CCN1CCN(CC(=O)c2ccc(Br)cc2)CC1	47.3 (≈ 147 µM)
CC(C)(C)OC(=O)N1CCC[C@@H]1CO	> 30.2
Cc1ccc(NC(=O)CCC2CC(C)(C)OC2=O)cc1 (stereo not drawn)	> 41.3
C#CCOC(=O)Nc1ccc(OCC(F)(F)F)nc1	19.2 (≈ 70 µM)
Cc1nc(NC(=O)c2ccccc2)sc1C	29.6 (≈ 127 µM)
FC(F)(F)c1ccc(NC2=NCCC2)cc1	> 34.2
COC(=O)C1CN(C(=O)c2ccc(OC(F)F)cc2)c2ccccc2O1 (stereo not drawn)	43.1 (≈ 119 µM)
